Source: paper PMC11483378, “Triazole-Based Thiamine Analogues as Inhibitors of Thiamine Pyrophosphate-Dependent Enzymes: 1,3-Dicarboxylate for Metal Binding” (ACS Omega, 2024)

Legend:
[1] = PAMPA (parallel artificial membrane permeability assay); assay type: in vitro ADME
Experimental: PAMPA – methods and results (Table S2)
PAMPA was carried out in 96-well microtiter filter plates obtained from Millipore as described1 with some modifications. Each well of the filter plate was impregnated with 15 µL of 5% hexadecane dissolved in hexane (i.e. total amount of hexadecane: 0.75 µL) for at least 10 minutes in ventilated environment to allow for complete evaporation of hexane. Donor compartments were filled with 200 µL compound-containing donor solutions of compounds dissolved in 5% DMSO, phosphate buffered saline PBS) and connected to acceptor plate prefilled with buffer (5% DMSO in PBS, pH 7.4). The resulting sandwich was incubated at room temperature under gentle shaking and wrapped in wet paper towels to avoid evaporation. After 10 hours, the sandwich was disassembled and the solutions in the acceptor and donor were transferred to a disposable UV-transparent plate. UV absorption was measured at wavelengths between 220 and 340 nm using a microplate reader (CLARIOstar).
Compounds were tested at 500 µM. Calibration to determine concentration of compounds were performed with varying compound concentrations in buffer (5% DMSO in PBS).
The artificial membrane permeability is expressed as fraction absorbed (Fa%)2 or log Pe (log of the effective permeability)1. LogD values at pH 7.4 were calculated using MarvinSketch.
Fa% = 100 ∙CA ∙VA / CD0 ∙ VD where: CA = final drug concentration in the acceptor well (µM)
VA = volume in the acceptor well (cm3)
CD0 = Initial drug concentration in the donor well (µM)
VD = volume in the donor well (cm3) log P (cm/s) = log -ln 1-CA/Cequilibrium
S = surface area (cm2), typically 0.268 cm2
Cequilibrium = theoretical equilibrium concentration = [CD ∙VD+CA ∙VA] / [VD+VA] where: CD = final drug concentration in the donor well (µM)
CA = final drug concentration in the acceptor well (µM)
Table S2. Permeability data.
Compounds Fa (%) PAMPA log Pe (cm/s) cLogD (pH = 7.4)

Porcine PDH E1 = target: T1, Porcine PDH E1 (Sus scrofa, UniProt P29804); design: method as in PMID 37201323; conditions: assay conditions of previous study; cited from earlier work
T1 sequence (P29804 31-390): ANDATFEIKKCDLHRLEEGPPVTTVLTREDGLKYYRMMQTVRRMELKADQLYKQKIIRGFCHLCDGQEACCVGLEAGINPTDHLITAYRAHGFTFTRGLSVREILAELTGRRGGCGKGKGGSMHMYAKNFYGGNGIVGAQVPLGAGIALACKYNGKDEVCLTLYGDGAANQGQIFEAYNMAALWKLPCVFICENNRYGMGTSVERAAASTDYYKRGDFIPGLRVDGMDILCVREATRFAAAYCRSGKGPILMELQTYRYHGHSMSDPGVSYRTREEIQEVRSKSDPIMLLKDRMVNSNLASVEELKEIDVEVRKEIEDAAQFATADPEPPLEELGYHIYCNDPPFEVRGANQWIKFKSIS

S. cerevisiae PDC = target: T2, S. cerevisiae PDC (Saccharomyces cerevisiae, UniProt P06169); design: method as in PMID 37201323; conditions: assay conditions of previous study; cited from earlier work
T2 construct: purchased Sigma
T2 sequence (P06169 2-563 limits assumed): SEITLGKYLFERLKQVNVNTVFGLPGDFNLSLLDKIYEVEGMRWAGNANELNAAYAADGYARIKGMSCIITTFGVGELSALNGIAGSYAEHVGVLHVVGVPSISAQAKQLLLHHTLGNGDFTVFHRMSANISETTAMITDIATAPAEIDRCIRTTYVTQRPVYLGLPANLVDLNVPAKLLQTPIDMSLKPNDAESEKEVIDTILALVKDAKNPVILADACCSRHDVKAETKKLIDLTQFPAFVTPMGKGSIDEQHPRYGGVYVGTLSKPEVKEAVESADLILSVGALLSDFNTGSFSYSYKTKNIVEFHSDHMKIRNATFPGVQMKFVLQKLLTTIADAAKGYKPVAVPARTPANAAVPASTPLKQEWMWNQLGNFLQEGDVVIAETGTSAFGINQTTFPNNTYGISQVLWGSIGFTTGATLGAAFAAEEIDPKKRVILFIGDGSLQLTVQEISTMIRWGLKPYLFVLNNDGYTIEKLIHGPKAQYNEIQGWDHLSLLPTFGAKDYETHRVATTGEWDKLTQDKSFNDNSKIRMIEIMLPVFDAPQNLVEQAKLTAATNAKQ

A. viridans PO = A. viridans PO (Aerococcus viridans, UniProt A9X9K8); design: method as in PMID 37201323; conditions: assay conditions of previous study; cited from earlier work
Chain of A. viridans PO (A9X9K8 entry or part of it): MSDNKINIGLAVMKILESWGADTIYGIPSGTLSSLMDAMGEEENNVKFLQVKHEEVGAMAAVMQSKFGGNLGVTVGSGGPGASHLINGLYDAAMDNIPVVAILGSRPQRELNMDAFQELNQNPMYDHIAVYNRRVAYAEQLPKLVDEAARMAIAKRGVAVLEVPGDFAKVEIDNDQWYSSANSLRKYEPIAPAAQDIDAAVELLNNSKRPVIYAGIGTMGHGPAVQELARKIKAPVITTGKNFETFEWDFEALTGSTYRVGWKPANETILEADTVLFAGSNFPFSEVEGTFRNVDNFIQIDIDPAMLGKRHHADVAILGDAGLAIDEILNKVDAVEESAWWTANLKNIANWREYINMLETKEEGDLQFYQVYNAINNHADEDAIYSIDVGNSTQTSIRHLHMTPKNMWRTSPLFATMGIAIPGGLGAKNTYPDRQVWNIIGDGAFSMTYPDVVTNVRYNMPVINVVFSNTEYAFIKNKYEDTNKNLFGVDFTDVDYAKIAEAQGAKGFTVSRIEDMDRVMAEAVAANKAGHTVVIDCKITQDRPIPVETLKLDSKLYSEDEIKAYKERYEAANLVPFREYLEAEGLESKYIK

E. coli OGDH E1 = E. coli OGDH E1 (Escherichia coli, UniProt P0AFG3); design: method as in PMID 37201323; conditions: assay conditions of previous study; cited from earlier work
Chain of E. coli OGDH E1 (P0AFG3 whole entry): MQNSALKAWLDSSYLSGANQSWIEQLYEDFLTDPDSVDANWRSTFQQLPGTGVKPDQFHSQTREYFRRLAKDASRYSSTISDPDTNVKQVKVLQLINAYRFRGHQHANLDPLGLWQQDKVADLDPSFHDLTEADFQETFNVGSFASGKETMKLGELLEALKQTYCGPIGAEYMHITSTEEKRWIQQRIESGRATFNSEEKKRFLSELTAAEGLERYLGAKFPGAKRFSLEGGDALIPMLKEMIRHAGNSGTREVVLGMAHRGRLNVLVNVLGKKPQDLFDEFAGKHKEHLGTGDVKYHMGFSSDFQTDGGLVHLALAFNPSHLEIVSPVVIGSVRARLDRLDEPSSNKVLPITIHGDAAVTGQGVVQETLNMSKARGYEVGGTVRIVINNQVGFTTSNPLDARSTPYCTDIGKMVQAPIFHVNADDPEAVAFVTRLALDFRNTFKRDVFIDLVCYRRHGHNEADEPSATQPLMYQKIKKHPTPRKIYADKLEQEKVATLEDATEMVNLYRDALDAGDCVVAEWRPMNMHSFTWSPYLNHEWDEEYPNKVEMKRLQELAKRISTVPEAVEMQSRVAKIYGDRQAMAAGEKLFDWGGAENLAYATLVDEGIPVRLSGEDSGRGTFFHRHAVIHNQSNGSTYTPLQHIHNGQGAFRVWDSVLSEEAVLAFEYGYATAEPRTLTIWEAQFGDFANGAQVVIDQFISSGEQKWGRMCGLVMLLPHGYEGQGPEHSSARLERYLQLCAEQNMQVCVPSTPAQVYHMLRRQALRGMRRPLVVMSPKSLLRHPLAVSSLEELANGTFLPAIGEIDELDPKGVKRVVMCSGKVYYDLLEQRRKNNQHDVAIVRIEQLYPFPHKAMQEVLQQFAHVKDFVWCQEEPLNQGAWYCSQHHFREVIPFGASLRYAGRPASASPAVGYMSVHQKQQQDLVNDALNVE

With `Cc1ncc(Cn2cc(CCOP(=O)(O)O)nn2)c(N)n1` [compound 5] the “membrane permeability in PAMPA (in words)” value [1] was “membrane-impermeable”, the Papp at 10 h, 500 µM ([1]; PAMPA, compounds at 500 µM, 5% DMSO in PBS pH 7.4, 10 hours, room temperature, read-out: PAMPA log Pe (converted)) was 0.398 ×10⁻⁶ cm/s and the “Fa (fraction absorbed)” value ([1]; compounds at 500 µM, 5% DMSO in PBS pH 7.4, 10 hours, room temperature) was 2%. The IC50 (Porcine PDH E1) was 6.6 µM, the IC50 (S. cerevisiae PDC) was 1300 µM and the IC50 (A. viridans PO) was 348 µM. For the same molecule, the IC50 (E. coli OGDH E1) was 170 µM.
